According to ChEMBL document CHEMBL4002623, “Synthesis and in vitro activity of dicationic indolyl diphenyl ethers as novel potent antibiotic agents against drug-resistant bacteria” (Bioorg Med Chem Lett, 2017):
Converted amounts (≈) assume the structure as drawn.

Experiments:
[1] = system: Klebsiella pneumoniae; test: Antibacterial activity against extended-spectrum beta-lactamase-negative Klebsiella pneumoniae 09-8 by agar dilution method; format: functional
[2] = system: Enterococcus faecium; test: Antibacterial activity against vancomycin-resistant Enterococcus faecium 05-8 by agar dilution method; format: functional
[3] = system: Staphylococcus epidermidis; test: Antibacterial activity against methicillin-sensitive Staphylococcus epidermidis ATCC 12228 by agar dilution method; format: functional
[4] = system: Enterococcus faecium; test: Antibacterial activity against vancomycin-sensitive Enterococcus faecium 09-10 by agar dilution method; format: functional
[5] = system: Staphylococcus epidermidis; test: Antibacterial activity against methicillin-resistant Staphylococcus epidermidis 09-3 by agar dilution method; format: functional
[6] = system: Salmonella typhi; test: Antibacterial activity against Salmonella typhi H901 by agar dilution method; format: functional, Salmonella enterica subsp. enterica serovar Typhi; details: Salmonella enterica
[7] = system: Klebsiella pneumoniae; test: Antibacterial activity against extended-spectrum beta-lactamase-positive Klebsiella pneumoniae 09-25 by agar dilution method; format: functional
[8] = system: Proteus mirabilis; test: Antibacterial activity against Proteus mirabilis 09-1 by agar dilution method; format: functional
[9] = system: Staphylococcus epidermidis; test: Antibacterial activity against methicillin-sensitive Staphylococcus epidermidis 09-9 by agar dilution method; format: functional
[10] = system: Staphylococcus aureus; test: Antibacterial activity against methicillin-sensitive Staphylococcus aureus ATCC 29213 by agar dilution method; format: functional
[11] = system: Pseudomonas aeruginosa; test: Antibacterial activity against Pseudomonas aeruginosa 09-14 by agar dilution method; format: functional
[12] = system: Pseudomonas aeruginosa; test: Antibacterial activity against Pseudomonas aeruginosa ATCC 27853 by agar dilution method; format: functional
[13] = system: Enterococcus faecalis; test: Antibacterial activity against vancomycin-resistant Enterococcus faecalis 09-9 by agar dilution method; format: functional
[14] = system: Morganella morganii; test: Antibacterial activity against Morganella morganii ATCC 25830 by agar dilution method; format: functional
[15] = system: Enterococcus faecalis; test: Antibacterial activity against vancomycin-sensitive Enterococcus faecalis 09-8 by agar dilution method; format: functional
[16] = system: Pseudomonas aeruginosa; test: Antibacterial activity against Pseudomonas aeruginosa PAO1 by agar dilution method; format: functional
[17] = system: Serratia marcescens; test: Antibacterial activity against Serratia marcescens 41002 by agar dilution method; format: functional
[18] = system: Escherichia coli; test: Antibacterial activity against extended-spectrum beta-lactamase-negative Escherichia coli ATCC 25922 by agar dilution method; format: functional
[19] = system: Enterobacter cloacae; test: Antibacterial activity against Enterobacter cloacae 45301 by agar dilution method; format: functional
[20] = system: Enterococcus faecium; test: Antibacterial activity against vancomycin-resistant Enterococcus faecium ATCC 700221 by agar dilution method; format: functional
[21] = system: Klebsiella pneumoniae; test: Antibacterial activity against Klebsiella pneumoniae ATCC BAA-2146 expressing NDM-1 by agar dilution method; format: functional
[22] = system: Enterococcus faecalis; test: Antibacterial activity against vancomycin-resistant Enterococcus faecalis ATCC 51299 by agar dilution method; format: functional
[23] = system: Klebsiella pneumoniae; test: Antibacterial activity against extended-spectrum beta-lactamase-negative Klebsiella pneumoniae 7 by agar dilution method; format: functional
[24] = system: Escherichia coli; test: Antibacterial activity against extended-spectrum beta-lactamase-negative Escherichia coli 1515 by agar dilution method; format: functional
[25] = system: Acinetobacter calcoaceticus; test: Antibacterial activity against Acinetobacter calcoaceticus ATCC 19606 by agar dilution method; format: functional
[26] = Cytotoxicity against HEK293T cells after 48 hrs by MTS assay; format: cell-based, HEK-293T; details: human
[27] = system: Citrobacter freundii; test: Antibacterial activity against Citrobacter freundii ATCC 43864 by agar dilution method; format: functional
[28] = system: Escherichia coli; test: Antibacterial activity against extended-spectrum beta-lactamase-positive Escherichia coli 09-1 by agar dilution method; format: functional
[29] = system: Enterococcus faecalis; test: Antibacterial activity against vancomycin-sensitive Enterococcus faecalis ATCC 29212 by agar dilution method; format: functional
[30] = system: Providencia rettgeri; test: Antibacterial activity against Providencia rettgeri ATCC 31052 by agar dilution method; format: functional
[31] = system: Staphylococcus aureus; test: Antibacterial activity against methicillin-sensitive Staphylococcus aureus 09-6 by agar dilution method; format: functional
[32] = system: Escherichia coli; test: Antibacterial activity against extended-spectrum beta-lactamase-negative Escherichia coli 09-20 by agar dilution method; format: functional
[33] = system: Staphylococcus aureus; test: Antibacterial activity against methicillin-sensitive Staphylococcus aureus 15 by agar dilution method; format: functional
[34] = system: Klebsiella aerogenes; test: Antibacterial activity against Enterobacter aerogenes 45102 by agar dilution method; format: functional
[35] = system: Staphylococcus aureus; test: Antibacterial activity against methicillin-resistant Staphylococcus aureus 09-13 by agar dilution method; format: functional
[36] = system: Proteus vulgaris; test: Antibacterial activity against Proteus vulgaris ATCC 29905 by agar dilution method; format: functional
[37] = system: Staphylococcus aureus; test: Antibacterial activity against methicillin-resistant Staphylococcus aureus ATCC 33591 by agar dilution method; format: functional
[38] = system: Klebsiella pneumoniae; test: Antibacterial activity against extended-spectrum beta-lactamase-positive Klebsiella pneumoniae ATCC 700603 by agar dilution method; format: functional

| SMILES | MIC [1] [µg/mL] | MIC [2] [µg/mL] | MIC [3] [µg/mL] | MIC [4] [µg/mL] | MIC [5] [µg/mL] | MIC [6] [µg/mL] | MIC [7] [µg/mL] | MIC [8] [µg/mL] | MIC [9] [µg/mL] | MIC [10] [µg/mL] | MIC [11] [µg/mL] | MIC [12] [µg/mL] | MIC [13] [µg/mL] | MIC [14] [µg/mL] | MIC [15] [µg/mL] | MIC [16] [µg/mL] | MIC [17] [µg/mL] | MIC [18] [µg/mL] | MIC [19] [µg/mL] | MIC [20] [µg/mL] | further results |
| --- | --- | --- | --- | --- | --- | --- | --- | --- | --- | --- | --- | --- | --- | --- | --- | --- | --- | --- | --- | --- | --- |
| N=C(NC1CCCC1)c1ccc2cc(-c3ccc(Oc4ccc(-c5cc6ccc(C(=N)NC7CCCC7)cc6[nH]5)cc4)cc3)[nH]c2c1 | > 128 | > 128 | 8 (≈ 12.9 µM) | ≥ 128 | 16 (≈ 25.8 µM) | > 128 | > 128 | > 128 | 8 (≈ 12.9 µM) | 128 (≈ 206 µM) | > 128 | > 128 | 128 (≈ 206 µM) | > 128 | 128 (≈ 206 µM) | > 128 | > 128 | > 128 | > 128 | ≥ 128 | MIC [21]: > 128 µg/mL; MIC [22]: 128 µg/mL (≈ 206 µM); MIC [23]: > 128 µg/mL; MIC [24]: > 128 µg/mL; MIC [25]: > 128 µg/mL; CC50 at 48 h [26]: 28.9 µg/mL (≈ 46.6 µM); MIC [27]: > 128 µg/mL; MIC [28]: > 128 µg/mL; MIC [29]: 128 µg/mL (≈ 206 µM); MIC [30]: > 128 µg/mL; MIC [31]: 128 µg/mL (≈ 206 µM); MIC [32]: > 128 µg/mL; MIC [33]: 128 µg/mL (≈ 206 µM); MIC [34]: > 128 µg/mL; MIC [35]: 64 µg/mL (≈ 103 µM); MIC [36]: > 128 µg/mL; MIC [37]: 64 µg/mL (≈ 103 µM); MIC [38]: > 128 µg/mL |
| CCCNC(=N)c1ccc2cc(-c3ccc(Oc4ccc(-c5cc6ccc(C(=N)NCCC)cc6[nH]5)cc4)cc3)[nH]c2c1 | 128 (≈ 225 µM) | 16 (≈ 28.1 µM) | 8 (≈ 14.1 µM) | 16 (≈ 28.1 µM) | 2 (≈ 3.52 µM) | 128 (≈ 225 µM) | > 128 | > 128 | 8 (≈ 14.1 µM) | 16 (≈ 28.1 µM) | > 128 | > 128 | 16 (≈ 28.1 µM) | 128 (≈ 225 µM) | 16 (≈ 28.1 µM) | > 128 | > 128 | > 128 | > 128 | 2 to 16 (≈ 3.52 to 28.1 µM) | MIC [21]: > 128 µg/mL; MIC [22]: 16 µg/mL (≈ 28.1 µM); MIC [23]: > 128 µg/mL; MIC [24]: > 128 µg/mL; MIC [25]: > 128 µg/mL; CC50 at 48 h [26]: 26.2 µg/mL (≈ 46.1 µM); MIC [27]: > 128 µg/mL; MIC [28]: > 128 µg/mL; MIC [29]: 16 µg/mL (≈ 28.1 µM); MIC [30]: > 128 µg/mL; MIC [31]: 16 µg/mL (≈ 28.1 µM); MIC [32]: 128 µg/mL (≈ 225 µM); MIC [33]: 8 µg/mL (≈ 14.1 µM); MIC [34]: > 128 µg/mL; MIC [35]: 16 µg/mL (≈ 28.1 µM); MIC [36]: > 128 µg/mL; MIC [37]: 16 µg/mL (≈ 28.1 µM); MIC [38]: > 128 µg/mL |
| N=C(c1ccc2cc(-c3ccc(Oc4ccc(-c5cc6ccc(C(=N)N7CCCCC7)cc6[nH]5)cc4)cc3)[nH]c2c1)N1CCCCC1 | > 128 | 32 (≈ 51.5 µM) | 8 (≈ 12.9 µM) | 16 to 32 (≈ 25.8 to 51.5 µM) | 8 (≈ 12.9 µM) | > 128 | > 128 | > 128 | 8 (≈ 12.9 µM) | 16 (≈ 25.8 µM) | > 128 | > 128 | 32 (≈ 51.5 µM) | > 128 | 32 (≈ 51.5 µM) | > 128 | > 128 | > 128 | > 128 | 16 to 32 (≈ 25.8 to 51.5 µM) | MIC [21]: > 128 µg/mL; MIC [22]: 64 µg/mL (≈ 103 µM); MIC [23]: > 128 µg/mL; MIC [24]: > 128 µg/mL; MIC [25]: > 128 µg/mL; CC50 at 48 h [26]: 2.5 µg/mL (≈ 4.03 µM); MIC [27]: > 128 µg/mL; MIC [28]: > 128 µg/mL; MIC [29]: 32 µg/mL (≈ 51.5 µM); MIC [30]: > 128 µg/mL; MIC [31]: 16 µg/mL (≈ 25.8 µM); MIC [32]: > 128 µg/mL; MIC [33]: 16 µg/mL (≈ 25.8 µM); MIC [34]: > 128 µg/mL; MIC [35]: 16 µg/mL (≈ 25.8 µM); MIC [36]: > 128 µg/mL; MIC [37]: 16 µg/mL (≈ 25.8 µM); MIC [38]: > 128 µg/mL |
